In patent US12551479B2, “Acyl-protein thioesterase inhibitor for the treatment and/or prevention of Huntington's disease” (UNIVERSITÉ GRENOBLE ALPES, priority 2019, dated 2026):

Columns and labels:
Hdh^CAG/+ mice = test: Post-mortem synapse density (adjacent PSD95 and Vglut-1 spots) after 28 days of treatment; assay type: in vivo, mouse
Source text: We note that there is a significant reduction in this number of adjacent spots in untreated Hdh^CAG/+ mice.

[1] = test system: brain palmitoylated proteins; test: ABE (Acyl-Biotin-Exchange) assay on brain lysate; assay type: in vivo, mice
Procedure: In FIG. 4D, the graphic representation of the experiment set up to test the efficacy of the molecule to increase the level of palmitoylation in the brain 30 minutes after injection can be visualized. […] Brains were mechanically lysed in ice-cold buffer (1% IGEPAL CA-630; 50 mM Tris-HCl pH 7.5, 150 mM NaCl, 10% glycerol) containing 1:100 protease inhibitor cocktail (Sigma Aldrich P8340), 1 mM PMSF, 1:200 phosphatase inhibitor (Sigma Aldrich P5726), and 50 mM NEM (Sigma Aldrich E3876) to block free cystein. Brain lysates were rotated at 4° C. for 30 minutes before insoluble material was removed by centrifugation at 15.000 rpm for 10 minutes. Lysates were precleared by incubation with Dynabeads M-280 Streptavidin (Invitrogen 112.05D) for 30 minutes at 4° C. on the wheel. Proteins from precleared samples were then precipitated using chloroform-methanol assay. Each pellet was divided and resuspended in +HAM (2:3 of the pellet) (lysis buffer containing 1 mM HAM (Sigma 46780-4)) or −HAM (1:3 of the pellet) during 1 hour at room temperature on the wheel. Proteins were precipitated with chloroform-methanol method and the pellets were resuspended in Biotin-BMCC buffer (lysis buffer with 5 μM EZ-Link™ Biotin-BMCC (Thermo Fisher 21900)) for 1 hour at room temperature on the wheel. […]

[2] = Pharmacokinetics after intraperitoneal injection, plasma and brain by LC-MS/MS; assay type: in vivo; conditions: mice, 2 mg/kg intraperitoneal
Procedure: The ability of the ML-348 molecule to freely cross the blood brain barrier is an additional argument towards the efficacy of the molecule in vivo in mice.
Plasma proteins were precipitated by adding 800 μL acetonitrile into 400 μL of sample. Brains were ground into 400 μL H2O before adding 800 μL acetonitrile. Samples were centrifuged to remove insoluble residues at 15.000 g for 5 minutes at 16° C. Supernatants were analyzed by LC-MS/MS. LC-MS/MS was assessed by high-performance liquid chromatography (UHPC) coupled with a triple quadrupole (Shimadzu LC-MS 8030). Analyses were performed from 3 mice for each time point.
Before investigating ML-348 in vivo, the inventors first evaluated the pharmacokinetics of the molecule. […] They then evaluated the efficacy of the molecule to increase brain palmitoylation level 30 minutes after injection. For this purpose, they performed an Acyl-Biotin-Exchange (ABE) assay to biotinylate palmitoylated proteins before their immunoprecipitation with streptavidin-coated beads (FIG. 4D).

ERK phosphorylation = test: Postsynaptic signaling: phosphoERK immunopositive striatal neurons after glycine/strychnine stimulation; assay type: cell-based, mouse; conditions: Hdh^CAG/+ neurons, 1 μM daily; glycine/strychnine 15 minutes
Procedure: For striatal StHdh cells, acute treatment was performed at 10 μM for 1 hour before and during the acquisition time. For neurons within the microchambers, treatments were started at DIV2 until DIV12 every day at 1 μM in each compartment of the microfluidic device.
They used ERK phosphorylation as the readout of the postsynaptic signaling. […] The inventors stimulated cortical neurons for 15 minutes with glycine/strychnine and quantified the percentage of striatal neurons immunopositive for phosphoERK (FIG. 3J).

melanoma cells = conditions: studies of Vujic et al., 2015; cited from earlier work
Hdh^CAG140/+ mice = test: Horizontal Ladder test; assay type: in vivo, mouse; conditions: Hdh^CAG/+ mice, 0.3 mg/kg/day subcutaneous infusion; values similar to wild-type
Procedure: Mice littermates were grouped into mixed treatment groups. Males and females were 6 months of age at the beginning of the treatment. For each specific test, all experimental groups were tested on the same day, during the light phase and between Days 16 and 28 of treatment. Prior to testing, mice were acclimatized to the test room for a period of 30 minutes. Treatments were randomly assigned and behavioral tests were performed 12 days before the end of the delivery of the treatment. […] Mice were excluded from analysis if their performance was calculated as a significant outlier by the Grubb test. One mouse was excluded based on these criteria. Mouse weights were measured prior to the start of treatment and until the end of testing.
A horizontal ladder is used to assess forelimb and hindlimb placement and coordination. The horizontal ladder is composed of two clear Plexiglas walls (69.50×15 cm) containing metal rungs (0.2 cm diameter) irregularly spaced (between 0.5 and 2 cm apart). Mice were habituated to walk on a horizontal ladder during two consecutive days (3 trials per day). Then the mice were tested (3 trials) with a different pattern than the two days of habituation. Test trials were videorecorded, and the motor performance as well as the latency to complete the task were quantified. Data are expressed as the average of the 3 trials.

O=C(CN1CCN(C(=O)c2ccco2)CC1)Nc1cc(C(F)(F)F)ccc1Cl [ML-348]
synaptic density, number of PSD95 and Vglut-1 adjacent dots per 100 μm^2 (Hdh^CAG/+ mice): restores synaptic density to a level approximately equal to that of untreated wild-type mice
palmitoylation in brain (ABE, +HAM vs −HAM) ([1]; HdH^CAG/+ mice, 28 days of treatment, 0.3 mg/kg/day subcutaneous osmotic pump): increase palmitoylation
level of palmitoylation in brain lysates ([1]; mice injected with 0.3 mg/kg, 30 minutes after injection): increased
crossing of the blood brain barrier ([Brain]/[Plasma] values) ([2]; 30, 60 and 180 minutes): effectively crosses the blood brain barrier
degradation after injection (plasma and brain levels) ([2]; 60 minutes after injection): rapidly degraded
percentage of immunopositive phosphoERK cells in the postsynaptic space (ERK phosphorylation): restore postsynaptic signaling to values encountered in wild-type neurons
effect on melanoma cells (melanoma cells): no biologically significant effect
average error score (Hdh^CAG140/+ mice): significant improvement
average time to cross the horizontal ladder (Hdh^CAG140/+ mice): significant improvement
